Format in all cases: functional
The test system of assay [1] is Staphylococcus aureus. Nature of the assay: Antibacterial activity against Methicillin-resistant Staphylococcus aureus USA300 assessed as inhibition of bacterial growth.
The test system of assay [2] is Clostridioides difficile. Kind of assay: Antibacterial activity against Clostridium difficile ATCC BAA1870 assessed as inhibition of bacterial growth.
The test system of assay [3] is Escherichia coli. Kind of assay: Antibacterial activity against Escherichia coli JW55031 harboring tolC mutant assessed as inhibition of bacterial growth.
Assay [4] relates to Escherichia coli. Kind of assay: Antibacterial activity against wild type Escherichia coli BW25113 assessed as inhibition of bacterial growth.
For assay [5], the system named is Candida albicans. Nature of the assay: Antifungal activity against wild type Candida albicans SC5314 assessed as inhibition of fungal growth.

We go through nine molecules from ChEMBL document CHEMBL5329183, “Naphthylthiazoles: a class of broad-spectrum antifungals” (RSC Med Chem, 2023).

Values after ≈ are worked out from the molar mass of the structure shown.

By MIC is commonly meant the smallest concentration in the dilution series that meets the test's criterion for growth inhibition. For `Cc1nc(-c2ccc3ccccc3c2)sc1-c1nnc(N2CCC[C@H]2CO)o1`, the MIC in assay [1], in assay [2], in assay [3], in assay [4] and in assay [5] was greater than 64 µg/mL in each case.

For the molecule `Cc1nc(-c2ccc3ccccc3c2)sc1-c1nnc(N2CCCCC2CN)o1` (stereo not given), the MIC in assay [1] was greater than 64 µg/mL; in assay [2], 32 µg/mL (≈ 78.9 µM); in assay [3] it was greater than 64 µg/mL; in assay [4] it was greater than 64 µg/mL; in assay [5], greater than 64 µg/mL.

`Cc1nc(-c2ccc3ccccc3c2)sc1-c1nnc(N2CCC[C@H]2C(N)=O)o1`: the MIC in assay [1], in assay [2], in assay [3], in assay [4] and in assay [5] was greater than 64 µg/mL in each case.

Consider `Cc1nc(-c2ccc3ccccc3c2)sc1-c1nnc(N[C@H]2CC[C@H](N)CC2)o1`, for which the minimal inhibitory concentration (MIC) in assay [1] was 64 µg/mL (≈ 158 µM); in assay [2] it was 64 µg/mL (≈ 158 µM); in assay [3], greater than 64 µg/mL; in assay [4], greater than 64 µg/mL; in assay [5], 64 µg/mL (≈ 158 µM).

With `Cc1nc(-c2ccc3ccccc3c2)sc1-c1nnc(N2CCC[C@@H]2C(N)=O)o1`, the MIC in assay [1], in assay [2], in assay [3], in assay [4] and in assay [5] was greater than 64 µg/mL throughout.

Consider `Cc1nc(-c2ccc3ccccc3c2)sc1-c1nnc(N2CCC(N)C2)o1` (stereo not given), for which the MIC in assay [1] is greater than 64 µg/mL; in assay [2], greater than 64 µg/mL; in assay [3], greater than 64 µg/mL; in assay [4], greater than 64 µg/mL; in assay [5], 8 µg/mL (≈ 21.2 µM).

Consider `CCCNc1nnc(-c2sc(-c3ccc4ccccc4c3)nc2C)o1`, for which the MIC in assay [1], in assay [2], in assay [3], in assay [4] and in assay [5] was greater than 64 µg/mL throughout.

`Cc1nc(-c2ccc3ccccc3c2)sc1-c1nnc(N2CCC[C@@H]2CO)o1`: the minimal inhibitory concentration (MIC) in assay [1] is greater than 64 µg/mL; in assay [2] it was 16 µg/mL (≈ 40.8 µM); in assay [3], greater than 64 µg/mL; in assay [4], greater than 64 µg/mL; in assay [5], greater than 64 µg/mL.

Turning to `Cc1nc(-c2ccc3ccccc3c2)sc1-c1nnc(NCC(=N)N)o1`, the MIC in assay [1] is greater than 64 µg/mL; in assay [2] it was 64 µg/mL (≈ 176 µM); in assay [3] it was greater than 64 µg/mL; in assay [4] it was greater than 64 µg/mL; in assay [5], 32 µg/mL (≈ 87.8 µM).
